# From article PMC4257618, “Structures of Plasmodium vivax serine hydroxymethyltransferase: implications for ligand-binding specificity and functional control” (Acta Crystallographica Section D: Biological Crystallography, 2014)
# What was measured:
# [1] = target: T1, serine hydroxymethyltransferase (PvSHMT) (Plasmodium vivax, UniProt A5K8L9); assay: X-ray crystal structure at […] Å; also […] inhibition at […] in SHMT–MTHFD coupled assay; assay type: binding; settings: read-out: % inhibition at 1.55 mM
# T1 construct: gene PVX_100730
# T1 sequence (A5K8L9 1-442): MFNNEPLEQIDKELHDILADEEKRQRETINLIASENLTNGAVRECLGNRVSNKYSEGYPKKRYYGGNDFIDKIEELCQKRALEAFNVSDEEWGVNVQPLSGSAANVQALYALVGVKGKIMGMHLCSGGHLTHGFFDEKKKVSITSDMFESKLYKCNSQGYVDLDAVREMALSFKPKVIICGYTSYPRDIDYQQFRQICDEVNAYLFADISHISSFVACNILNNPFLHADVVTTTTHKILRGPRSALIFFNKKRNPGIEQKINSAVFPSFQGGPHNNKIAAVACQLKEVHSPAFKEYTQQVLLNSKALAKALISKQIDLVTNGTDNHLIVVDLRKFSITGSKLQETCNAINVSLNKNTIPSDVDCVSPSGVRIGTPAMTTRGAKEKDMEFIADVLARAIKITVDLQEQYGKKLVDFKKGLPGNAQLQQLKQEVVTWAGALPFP
# [2] = target: T1, serine hydroxymethyltransferase (PvSHMT); assay: X-ray crystal structure at […] Å; assay type: binding
# [3] = target: T1, serine hydroxymethyltransferase (PvSHMT); assay: SHMT–MTHFD coupled enzyme assay (L-Ser–THF); quinonoid formation with D-Ser by absorbance; assay type: biochemical
# [4] = target: T1, serine hydroxymethyltransferase (PvSHMT); assay: X-ray crystal structure at […] Å; assay type: binding; remark: listed apart in the source
structure (smiles),measurement,setting,value
"Nc1nc(=O)c2c([nH]1)NC[C@@H](CNc1ccc(C(=O)N[C@@H](CCC(=O)O)C(=O)O)cc1)N2C=O (racemic) [(6R)-5FTHF, (6R)-5-formyltetrahydrofolate]",inhibition at 1550 µM,[1],30%
"N[C@@H](CO)C(=O)O [L-Ser, L-serine]",X-ray crystal structure at 2.5 Å,[2],4pfn for the PLP–L-Ser external aldimine
"Nc1nc(=O)c2c([nH]1)NC[C@H](CNc1ccc(C(=O)N[C@@H](CCC(=O)O)C(=O)O)cc1)N2C=O [(6S)-5FTHF, (6S)-5-formyltetrahydrofolate]",Ki,[3],210 µM
"Cc1ncc(COP(=O)(O)O)c(C=O)c1O [PLP, pyridoxal-5′-phosphate]",X-ray crystal structure at 2.3 Å,[4],4pff for the PLP internal aldimine
